# Results taken from article PMC11962044, “Experimental and theoretical studies on structural changes in the microtubule affinity-regulating kinase 4 (MARK4) protein induced by N-hetarenes: a new class of therapeutic candidates for Alzheimer’s disease” (Frontiers in Medicine, 2025).
# Like-named read-outs stand apart in the source and are kept apart here.
# How the values were obtained:
# MARK4 [1] = molecular target: T1, MARK4 (Homo sapiens, UniProt Q96L34); test: ATPase inhibition assay (Malachite green) with purified MARK4; format: biochemical; details: MARK4 5 μM, ATP 200 μM, ligand 0–10 μM, 1 h at 25°C, read-out: IC50 against MARK4
# T1 sequence (Q96L34 1-752): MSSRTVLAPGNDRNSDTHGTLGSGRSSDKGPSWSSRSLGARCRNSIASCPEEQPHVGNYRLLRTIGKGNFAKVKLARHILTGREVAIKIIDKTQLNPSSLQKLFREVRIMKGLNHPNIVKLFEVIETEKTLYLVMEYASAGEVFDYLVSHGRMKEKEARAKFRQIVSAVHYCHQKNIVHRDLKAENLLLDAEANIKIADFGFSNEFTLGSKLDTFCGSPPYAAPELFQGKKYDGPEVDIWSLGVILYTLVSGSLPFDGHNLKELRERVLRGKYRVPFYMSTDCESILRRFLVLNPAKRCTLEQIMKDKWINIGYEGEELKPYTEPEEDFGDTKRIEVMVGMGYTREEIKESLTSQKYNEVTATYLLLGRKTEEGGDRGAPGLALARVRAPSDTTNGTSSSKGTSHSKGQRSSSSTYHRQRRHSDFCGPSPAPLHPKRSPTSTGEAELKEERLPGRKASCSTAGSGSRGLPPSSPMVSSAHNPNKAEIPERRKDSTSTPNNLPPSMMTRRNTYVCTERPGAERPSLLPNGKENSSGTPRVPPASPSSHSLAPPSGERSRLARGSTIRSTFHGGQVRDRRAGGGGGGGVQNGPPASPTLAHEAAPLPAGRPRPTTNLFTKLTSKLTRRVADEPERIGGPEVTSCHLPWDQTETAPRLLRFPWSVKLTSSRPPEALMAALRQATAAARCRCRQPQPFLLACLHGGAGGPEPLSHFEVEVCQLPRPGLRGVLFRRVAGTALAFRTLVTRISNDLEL
# Procedure: Purified MARK4 was used to conduct ATPase inhibition experiment following the reported method ([18], [30]). The concentration of the purified protein used was 5 μM, the ligand concentration was 0–10 μM and the substrate (ATP) was 200 μM. The ligand concentration was increased gradually against a given concentration of MARK4. The experiment involved combining MARK4 with freshly prepared ATP, resulting in a final reaction mixture volume of 100 μL. This mixture was incubated for 1 h at 25°C. This is followed by the addition of Malachite green solution (200 μL) to quench the reaction. The samples were allowed to incubate at room temperature for color development. Finally, the reaction mixture (100 μL) was filled into 96-well plates and analyzed using a multiscan ELISA reader (λ = 620 nm). All experimental reactions were conducted in triplicate to ensure statistical reliability.
# MARK4 [2] = molecular target: T1, MARK4; test: Fluorescence quenching binding assay; details: modified Stern-Volmer equation; excitation 280 nm; read-out: binding constant (K) (converted)
# Procedure: A fluorescence-based binding assay was conducted to evaluate the binding efficiency of ligands. During the titration, the concentration of the pure MARK4 protein was kept constant while increasing concentrations of the ligand ([31]). The emission data were collected using a Jasco FP-6200 spectrofluorimeter (Japan), with a slit width of 10 nm and medium sensitivity. The samples were excited at 280 nm, and the emission spectra were recorded. Blank subtracted spectra are reported, and each measurement was performed in triplicate. For fluorescence values, we took the inner filter effect into account ([32]). The binding constant (K) was calculated using the Stern-Volmer (SV) (Equations 1, 2). (1) F0/F=1+KsvC (2) logF0−F/F=logK+nlogC Where F0 denotes the fluorescence intensity of the protein in the absence of ligands, whereas F indicates the fluorescence intensity when ligands are present. K represents the binding constant, n indicates the number of binding sites, and C refers to the concentration of the ligand.
# MARK4 enzyme = details: cited from earlier work
# [3] = read-out: IC50 MARK4 enzyme in vitro
Structure (SMILES),IC50 (MARK4 [1]) [µM],further results
"N=C(N)N1CCN(c2cc(-c3ccc(F)c(Cl)c3)ncn2)CC1 [Compound 7, 4-(6-(3-Chloro-4-fluorophenyl)pyrimidin-4-yl)piperazine-1-carboximidamide]",16.5 ± 1.71,
"N=C(N)N1CCN(c2cc(-c3cc4ccccc4s3)ncn2)CC1 [Compound 9, 4-(6-(benzo[b]thiophen-2-yl)pyrimidin-4-yl)piperazine-1-carboximidamide]",6.68 ± 0.8,Kd (MARK4 [2]): 8.77 µM
COc1cc2c(cc1OC)C(=O)C(CC1CCN(Cc3ccccc3)CC1)C2 (centres unmarked) [donepezil],,IC50 (MARK4 enzyme; [3]): 5.3 µM
O=C(/C=C/c1ccc(O)c(O)c1)O[C@H](Cc1ccc(O)c(O)c1)C(=O)O [Rosmarinic acid],,"IC50 (MARK4 enzyme; reference inhibitor of MARK4, read-out: IC50 of the reference inhibitor): ~6.2 µM"
CCN(C)C(=O)Oc1cccc([C@H](C)N(C)C)c1 [rivastigmine],,IC50 (MARK4 enzyme; [3]): 6.74 µM

# Continued, in another order:
IC50 (MARK4 [1]) [µM],Structure (SMILES),further results
7.28 ± 0.49,"N=C(N)N1CCN(c2cc(-c3ccc(OC(F)(F)F)cc3)ncn2)CC1 [Compound 10, 4-(6-(4-(Trifluoromethoxy)phenyl)pyrimidin-4-yl)piperazine-1-carboximidamide]",
15.8 ± 0.92,"N=C(N)N1CCN(c2cc(-c3ccc(C(F)(F)F)cc3)ncn2)CC1 [Compound 8, 4-(6-(4-(Trifluoromethyl)phenyl)pyrimidin-4-yl)piperazine-1-carboximidamide]",
5.35 ± 0.22,"Cc1ccc(-c2cc(N3CCN(C(=N)N)CC3)ncn2)cc1 [Compound 5, 4-(6-(p-Tolyl)pyrimidin-4-yl)piperazine-1-carboximidamide]",Kd (MARK4 [2]): 6.67 µM
11.8 ± 1.19,"N=C(N)N1CCN(c2cc(-c3ccc(Cl)c(Cl)c3)ncn2)CC1 [Compound 6, 4-(6-(3,4-Dichlorophenyl)pyrimidin-4-yl)piperazine-1-carboximidamide]",
